Results reported in BindingDB's records for doi:10.1016/s0960-894x(02)00294-9 (Glaxosmithkline, 2002).

Target: Human cytomegalovirus protease (HHV-5)
Assay: Tested in vitro for its binding affinity against Protease

Row | Ki | Structure (SMILES)
1 | 1.1 µM | C[C@@H]1[C@H](C)[C@@H]1C(=O)N1C(=O)[C@@H](C)[C@@H]2[C@@H]1CCN2C(=O)[C@@H]1CCCN1S(=O)(=O)c1cccc2c(N(C)C)cccc12 [4-[1-(5-dimethylamino-1-naphthylsulfonyl)tetrahydro-1H-2-pyrrolylcarbonyl]-1-(2,3-dimethylcyclopropylcarbonyl)-3-methylperhydropyrrolo[3,2-b]pyrrol-2-one]
2 | 0.4 µM | C[C@@H]1C(=O)N(c2nccs2)[C@H]2CCN(C(=O)[C@@H]3CCCN3S(=O)(=O)c3cccc4c(N(C)C)cccc34)[C@H]12 [(3S,3aR,6aS)-4-[(S)-1-(5-Dimethylamino-naphthalene-1-sulfonyl)-pyrrolidine-2-carbonyl]-3-methyl-1-thiazol-2-yl-hexahydro-pyrrolo[3,2-b]pyrrol-2-one]
